The results in this text go back to ChEMBL document CHEMBL1201862, “PubChem BioAssay data set” (2004).

As usually defined, the AC50 is the midpoint of the concentration-response curve, whichever way the signal moves. Broadly, the IC50 is the concentration needed to halve the response being measured. As usually defined, the CC50 is the concentration at which the toxic effect on the cells reaches its halfway point.

The source made the active and inactive calls.

In test [1] the target is T1, Endoribonuclease toxin MazF (Escherichia coli K-12, UniProt P0AE70).
T1 sequence (P0AE70 whole entry): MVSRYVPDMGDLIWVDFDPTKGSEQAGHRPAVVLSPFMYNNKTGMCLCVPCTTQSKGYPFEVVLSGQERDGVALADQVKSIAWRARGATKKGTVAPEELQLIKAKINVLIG
The experiment in a line: substrate-only fluorescence increase artefacts – biochemical, single-stranded RNase substrate, counter-screen for MazEF activator project, dose response (AID 588502). The test is classed as functional. On the technique in general: The purpose of a counterscreen is to sort out artefacts and off-target activity.

The target in test [2] is T2, Zinc finger protein mex-5 (Caenorhabditis elegans, UniProt Q9XUB2).
T2 sequence (Q9XUB2 whole entry): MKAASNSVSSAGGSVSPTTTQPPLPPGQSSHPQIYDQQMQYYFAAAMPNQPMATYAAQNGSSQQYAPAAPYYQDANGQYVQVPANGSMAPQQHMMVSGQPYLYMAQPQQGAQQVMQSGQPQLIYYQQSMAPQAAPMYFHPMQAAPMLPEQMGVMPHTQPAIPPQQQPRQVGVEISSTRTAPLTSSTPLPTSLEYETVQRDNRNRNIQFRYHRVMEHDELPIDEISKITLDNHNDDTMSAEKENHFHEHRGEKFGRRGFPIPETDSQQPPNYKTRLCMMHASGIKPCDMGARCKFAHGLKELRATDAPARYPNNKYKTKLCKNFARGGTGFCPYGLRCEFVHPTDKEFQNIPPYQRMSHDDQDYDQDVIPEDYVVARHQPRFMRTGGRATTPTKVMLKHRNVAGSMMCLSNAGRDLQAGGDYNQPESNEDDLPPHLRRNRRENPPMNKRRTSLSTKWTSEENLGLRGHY
Briefly: potency of MEX-5 RNA-binding blockers – biochemical, C. elegans, fluorescence polarization, dose response (AID 1960). A general note: Polarisation of emitted light reports the rotation of a fluorescent probe.

The target in test [3] is T3, Corticotropin-releasing factor receptor 2/Corticotropin-releasing factor-binding protein (Homo sapiens, UniProt P24387+Q13324).
T3 sequence (Q13324 whole entry): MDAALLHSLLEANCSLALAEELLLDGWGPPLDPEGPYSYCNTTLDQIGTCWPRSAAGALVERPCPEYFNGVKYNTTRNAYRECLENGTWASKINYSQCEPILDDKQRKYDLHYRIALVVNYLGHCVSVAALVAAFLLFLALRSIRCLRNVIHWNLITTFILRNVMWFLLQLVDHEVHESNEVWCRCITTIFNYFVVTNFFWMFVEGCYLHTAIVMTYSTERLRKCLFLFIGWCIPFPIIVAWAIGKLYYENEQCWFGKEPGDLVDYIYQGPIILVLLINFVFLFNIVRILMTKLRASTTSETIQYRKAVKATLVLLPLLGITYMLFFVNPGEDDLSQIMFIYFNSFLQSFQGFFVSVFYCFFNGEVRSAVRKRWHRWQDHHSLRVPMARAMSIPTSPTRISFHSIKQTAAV
T3 sequence (P24387 whole entry): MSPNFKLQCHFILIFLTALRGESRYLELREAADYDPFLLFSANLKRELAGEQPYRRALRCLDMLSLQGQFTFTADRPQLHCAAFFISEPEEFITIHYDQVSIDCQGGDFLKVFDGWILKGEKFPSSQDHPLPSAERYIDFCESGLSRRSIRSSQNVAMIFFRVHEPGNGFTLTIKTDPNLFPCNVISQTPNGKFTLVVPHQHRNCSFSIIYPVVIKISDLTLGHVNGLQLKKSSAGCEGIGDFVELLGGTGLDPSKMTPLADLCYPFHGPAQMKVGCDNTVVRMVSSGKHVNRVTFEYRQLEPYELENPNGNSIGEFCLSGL
The experiment in a line: activators of CRF receptor 2 with binding protein – uHTS hits, confirmation (AID 602473). The note with it: read-out: EC50_Mean. It is filed as functional.

The target in test [4] is T1, Endoribonuclease toxin MazF. Briefly: activation of MazEF endoribonuclease cleavage – biochemical, fluorescence, single-stranded RNA substrate, uHTS hits, dose response (AID 588481). The test is classed as functional.
Test [5] deals with T4, RNA-binding protein pos-1 (Caenorhabditis elegans, UniProt G5EF15).
T4 sequence (G5EF15 whole entry): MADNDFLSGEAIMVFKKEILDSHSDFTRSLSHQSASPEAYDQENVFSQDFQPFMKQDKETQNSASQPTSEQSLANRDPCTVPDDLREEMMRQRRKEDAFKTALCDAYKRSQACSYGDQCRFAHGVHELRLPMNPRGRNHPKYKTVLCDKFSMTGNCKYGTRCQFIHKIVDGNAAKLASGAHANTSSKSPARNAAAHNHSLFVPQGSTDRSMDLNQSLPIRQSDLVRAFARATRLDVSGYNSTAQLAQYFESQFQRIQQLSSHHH
The experiment in a line: disruptors of C. elegans POS-1 RNA interaction – biochemical, fluorescence polarization, dose response (AID 1964).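 Note: purified POS-1 fused to maltose binding protein made in E. coli; potency of compounds blocking POS-1 binding to fluorescent RNA.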

The nature of test [6]: reduction of Shn3 3'UTR-driven luciferase in osteoblasts – cell-based, Clone20 osteoblasts, firefly luciferase, cherry-picked, dose response (AID 624132).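 Note: firefly luciferase luminescence from reporter carrying the Shn3 3'UTR in osteoblasts.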 The test is classed as functional.
Test [7] deals with T5, Type-1 angiotensin II receptor (Homo sapiens, UniProt P30556).
T5 sequence (P30556 whole entry): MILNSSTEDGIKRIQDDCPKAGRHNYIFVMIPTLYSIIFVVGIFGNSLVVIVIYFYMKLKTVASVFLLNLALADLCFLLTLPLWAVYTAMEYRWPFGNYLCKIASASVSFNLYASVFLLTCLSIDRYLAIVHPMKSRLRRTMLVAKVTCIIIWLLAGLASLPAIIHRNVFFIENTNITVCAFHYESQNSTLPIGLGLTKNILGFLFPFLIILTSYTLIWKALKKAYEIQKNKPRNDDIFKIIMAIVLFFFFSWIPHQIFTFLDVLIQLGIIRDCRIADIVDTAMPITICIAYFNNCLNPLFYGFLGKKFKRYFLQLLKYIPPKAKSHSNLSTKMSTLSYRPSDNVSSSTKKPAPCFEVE
The experiment in a line: antagonism of angiotensin II type 1 receptor – cell-based, uHTS hits, selectivity assay for APJ receptor antagonist project, dose response (AID 463214).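 Note: antagonist potency against angiotensin II stimulated AT1 response.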 It is filed as functional.

The target in test [8] is T6, Streptokinase A (Streptococcus pyogenes serotype M1, UniProt P10520).
T6 sequence (P10520 whole entry): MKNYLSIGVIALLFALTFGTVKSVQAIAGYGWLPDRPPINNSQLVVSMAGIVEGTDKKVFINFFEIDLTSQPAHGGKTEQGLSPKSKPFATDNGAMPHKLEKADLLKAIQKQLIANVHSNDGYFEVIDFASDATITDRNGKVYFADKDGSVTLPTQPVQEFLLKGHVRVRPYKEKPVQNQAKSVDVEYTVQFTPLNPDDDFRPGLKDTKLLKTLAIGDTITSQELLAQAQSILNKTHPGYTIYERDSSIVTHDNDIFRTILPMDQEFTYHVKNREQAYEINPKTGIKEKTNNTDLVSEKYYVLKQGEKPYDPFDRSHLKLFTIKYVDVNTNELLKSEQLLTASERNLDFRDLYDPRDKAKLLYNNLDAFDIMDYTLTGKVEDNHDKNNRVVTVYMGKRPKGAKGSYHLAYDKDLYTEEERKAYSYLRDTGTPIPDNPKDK
The experiment in a line: viability-normalized secreted streptokinase activity reduction – plasminogen activation absorbance, OD405, dose response (AID 1914).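 Note: secreted streptokinase activity via plasminogen activation per viability signal from cell pellet.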 It is filed as functional, Streptococcus pyogenes M1 GAS.

In test [9] the target is T7, Mannose-6-phosphate isomerase (Homo sapiens, UniProt P34949).
T7 sequence (P34949 whole entry): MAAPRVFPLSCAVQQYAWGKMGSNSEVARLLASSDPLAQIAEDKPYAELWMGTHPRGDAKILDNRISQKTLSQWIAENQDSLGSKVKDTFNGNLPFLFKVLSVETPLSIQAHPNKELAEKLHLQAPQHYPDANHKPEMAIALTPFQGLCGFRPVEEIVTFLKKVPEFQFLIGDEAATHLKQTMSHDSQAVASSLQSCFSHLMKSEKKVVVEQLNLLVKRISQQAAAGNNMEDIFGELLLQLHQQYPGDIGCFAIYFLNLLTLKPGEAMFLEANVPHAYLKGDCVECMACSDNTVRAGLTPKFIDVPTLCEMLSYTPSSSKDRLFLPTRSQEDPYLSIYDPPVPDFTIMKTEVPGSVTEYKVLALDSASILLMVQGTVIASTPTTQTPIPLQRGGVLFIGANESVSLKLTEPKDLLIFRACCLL
Briefly: MPI enzyme activity inhibition – biochemical, fluorescence intensity, coupled assay, primary screen (AID 1209).

In test [10] the test system is Vero. Briefly: viability of Vero cells under compound – cytotoxicity control for flavivirus capping enzyme inhibitors (AID 588742). The test is classed as functional. The conditions noted are these: Chlorocebus sabaeus.
The target of test [11] is T8, Fatty acid synthase (Homo sapiens, UniProt P49327). Briefly: inhibition of human FAS-TE enzyme activity – biochemical, kinetic fluorescence intensity, dose response (AID 624326).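 Note: rate of fluorescence rise from hydrolysis of a fluorogenic O-methyl fluorescein ester substrate.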 It is filed as functional.
In test [12] the target is T8, Fatty acid synthase. Briefly: inhibition of human FAS-TE enzyme activity – biochemical, endpoint fluorescence intensity, uHTS hits, dose response (AID 624327).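 Note: fluorescence from hydrolysis of an O-methyl fluorescein acyl ester substrate by the enzyme.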 It is filed as functional.
The nature of test [13]: loss of viability in HepG2 cells – cell-based, CellTiter-Glo, cherry-picked, cytotoxicity control for Shn3 inhibitor project, dose response (AID 624134). The test is classed as functional. A general note: Cellular ATP, detected with luciferase, serves as a proxy for viable cell number.
Test [14] has as its system Streptococcus sp. 'group A'. The experiment in a line: Streptococcus pyogenes SK(-)GAS viability under kanamycin – luminescence, BacTiterGlo, confirmation, counter-screen for streptokinase expression inhibitor project, dose response (AID 1900). The test is classed as functional, organism-based.
Test [15] concerns the target Beta-galactosidase (Escherichia coli, UniProt Q8VNN2). The experiment in a line: PubChem AID 485352. The test is classed as functional.
The target of test [16] is Genome polyprotein (dengue virus type 2, UniProt P29990). The experiment in a line: flavivirus cap methylation enzyme inhibition – biochemical, confirmation dose response, primary screen (AID 588689). The test is classed as functional.
Test [17] concerns Streptococcus. Briefly: GAS UMAA2166 growth inhibition – luminescence, BacTiterGlo, counter-screen for streptokinase expression inhibitor project, dose response (AID 1915).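 Note: potency for reduction of bacterial viability or growth.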 The test is classed as functional, organism-based.
Test [18] is described as follows: non-specific 3'UTR reporter inhibition in Clone20-Shn3RL – cell-based, Renilla luciferase, cherry-picked, counter-screen for Shn3 inhibitor project, dose response (AID 624133). It is filed as functional.
Test [19] deals with Glucose-6-phosphate 1-dehydrogenase (Homo sapiens, UniProt P11413). The experiment in a line: inhibition of Homo sapiens G6PD, dose series – biochemical, fluorescence, selectivity assay for P. falciparum G6PD inhibitor project, dose response (AID 504792). It is filed as functional.
Glucose-6-phosphate 1-dehydrogenase, sequence (P11413 whole entry): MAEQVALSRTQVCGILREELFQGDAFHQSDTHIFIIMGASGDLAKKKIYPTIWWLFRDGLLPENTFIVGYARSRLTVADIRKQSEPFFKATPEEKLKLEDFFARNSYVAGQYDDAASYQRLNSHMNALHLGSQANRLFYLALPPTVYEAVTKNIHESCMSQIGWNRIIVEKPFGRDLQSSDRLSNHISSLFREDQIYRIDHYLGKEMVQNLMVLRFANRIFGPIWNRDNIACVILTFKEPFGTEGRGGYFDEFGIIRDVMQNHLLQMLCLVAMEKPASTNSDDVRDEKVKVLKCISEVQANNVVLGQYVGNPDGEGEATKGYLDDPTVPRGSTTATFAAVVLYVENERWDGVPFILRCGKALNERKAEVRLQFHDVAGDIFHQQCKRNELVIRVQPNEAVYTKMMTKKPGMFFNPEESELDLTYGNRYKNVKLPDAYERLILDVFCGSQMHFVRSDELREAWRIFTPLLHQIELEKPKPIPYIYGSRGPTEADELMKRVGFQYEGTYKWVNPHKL

T8 sequence (P49327 whole entry): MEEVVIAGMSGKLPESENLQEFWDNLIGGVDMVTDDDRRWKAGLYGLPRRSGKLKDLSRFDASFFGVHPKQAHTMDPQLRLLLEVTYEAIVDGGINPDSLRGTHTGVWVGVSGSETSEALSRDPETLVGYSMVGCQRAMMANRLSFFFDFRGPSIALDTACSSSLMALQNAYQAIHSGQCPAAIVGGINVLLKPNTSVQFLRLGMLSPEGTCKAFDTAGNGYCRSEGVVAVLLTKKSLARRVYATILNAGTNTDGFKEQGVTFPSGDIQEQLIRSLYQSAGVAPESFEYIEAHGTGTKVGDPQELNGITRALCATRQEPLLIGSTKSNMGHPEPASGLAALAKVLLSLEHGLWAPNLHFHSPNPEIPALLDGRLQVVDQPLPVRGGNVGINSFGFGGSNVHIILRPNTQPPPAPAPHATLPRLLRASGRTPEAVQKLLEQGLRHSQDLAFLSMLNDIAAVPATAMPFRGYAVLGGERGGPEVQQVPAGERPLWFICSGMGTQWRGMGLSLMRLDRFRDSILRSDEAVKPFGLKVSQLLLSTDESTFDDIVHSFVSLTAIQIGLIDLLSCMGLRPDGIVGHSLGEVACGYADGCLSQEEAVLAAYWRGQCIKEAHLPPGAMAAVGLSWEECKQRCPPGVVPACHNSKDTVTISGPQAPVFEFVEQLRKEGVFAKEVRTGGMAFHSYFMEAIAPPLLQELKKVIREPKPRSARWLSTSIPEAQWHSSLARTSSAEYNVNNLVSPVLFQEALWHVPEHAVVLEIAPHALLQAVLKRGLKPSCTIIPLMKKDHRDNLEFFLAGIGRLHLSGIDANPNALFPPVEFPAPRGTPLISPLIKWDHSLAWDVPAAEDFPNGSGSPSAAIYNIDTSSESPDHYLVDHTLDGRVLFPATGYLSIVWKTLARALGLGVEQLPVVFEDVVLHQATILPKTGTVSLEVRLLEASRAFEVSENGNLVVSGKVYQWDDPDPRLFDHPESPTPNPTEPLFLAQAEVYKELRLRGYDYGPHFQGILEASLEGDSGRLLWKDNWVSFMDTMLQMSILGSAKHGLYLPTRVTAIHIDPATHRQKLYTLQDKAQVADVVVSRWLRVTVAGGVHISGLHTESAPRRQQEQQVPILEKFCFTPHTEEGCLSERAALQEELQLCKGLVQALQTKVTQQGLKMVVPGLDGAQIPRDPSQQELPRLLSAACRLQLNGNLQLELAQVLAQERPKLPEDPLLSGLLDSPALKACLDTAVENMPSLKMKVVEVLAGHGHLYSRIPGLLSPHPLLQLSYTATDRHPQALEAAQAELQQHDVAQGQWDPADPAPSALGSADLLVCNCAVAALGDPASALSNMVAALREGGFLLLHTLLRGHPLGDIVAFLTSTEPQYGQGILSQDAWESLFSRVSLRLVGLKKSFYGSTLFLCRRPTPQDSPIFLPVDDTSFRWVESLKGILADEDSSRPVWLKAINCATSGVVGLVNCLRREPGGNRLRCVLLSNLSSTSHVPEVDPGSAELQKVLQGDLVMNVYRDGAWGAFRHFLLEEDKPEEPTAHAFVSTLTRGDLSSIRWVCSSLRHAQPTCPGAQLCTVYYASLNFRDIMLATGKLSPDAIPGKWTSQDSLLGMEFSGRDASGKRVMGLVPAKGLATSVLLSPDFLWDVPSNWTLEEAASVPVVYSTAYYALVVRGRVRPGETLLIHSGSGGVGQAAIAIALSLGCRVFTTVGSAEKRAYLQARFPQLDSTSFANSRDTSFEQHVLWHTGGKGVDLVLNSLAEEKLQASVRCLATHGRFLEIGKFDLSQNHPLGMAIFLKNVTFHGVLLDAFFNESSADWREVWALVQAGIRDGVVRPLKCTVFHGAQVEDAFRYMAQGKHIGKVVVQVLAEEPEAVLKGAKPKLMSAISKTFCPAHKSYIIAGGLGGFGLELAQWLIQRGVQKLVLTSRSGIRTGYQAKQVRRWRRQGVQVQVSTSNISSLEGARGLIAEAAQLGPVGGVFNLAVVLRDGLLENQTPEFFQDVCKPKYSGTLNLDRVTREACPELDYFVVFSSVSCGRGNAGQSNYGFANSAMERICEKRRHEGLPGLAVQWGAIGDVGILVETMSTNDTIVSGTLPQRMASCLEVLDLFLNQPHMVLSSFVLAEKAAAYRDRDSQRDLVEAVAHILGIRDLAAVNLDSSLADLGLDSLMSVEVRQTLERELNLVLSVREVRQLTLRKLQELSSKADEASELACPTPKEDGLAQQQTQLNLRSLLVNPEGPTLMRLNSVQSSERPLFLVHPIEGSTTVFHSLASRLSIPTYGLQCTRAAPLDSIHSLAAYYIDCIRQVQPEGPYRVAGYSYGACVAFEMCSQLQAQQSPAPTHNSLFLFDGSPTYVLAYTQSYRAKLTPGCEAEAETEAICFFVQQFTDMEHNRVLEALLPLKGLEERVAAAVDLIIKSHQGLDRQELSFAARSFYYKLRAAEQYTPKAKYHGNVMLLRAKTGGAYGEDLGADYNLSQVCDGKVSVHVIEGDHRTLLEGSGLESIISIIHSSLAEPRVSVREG
Beta-galactosidase, sequence (Q8VNN2 whole entry): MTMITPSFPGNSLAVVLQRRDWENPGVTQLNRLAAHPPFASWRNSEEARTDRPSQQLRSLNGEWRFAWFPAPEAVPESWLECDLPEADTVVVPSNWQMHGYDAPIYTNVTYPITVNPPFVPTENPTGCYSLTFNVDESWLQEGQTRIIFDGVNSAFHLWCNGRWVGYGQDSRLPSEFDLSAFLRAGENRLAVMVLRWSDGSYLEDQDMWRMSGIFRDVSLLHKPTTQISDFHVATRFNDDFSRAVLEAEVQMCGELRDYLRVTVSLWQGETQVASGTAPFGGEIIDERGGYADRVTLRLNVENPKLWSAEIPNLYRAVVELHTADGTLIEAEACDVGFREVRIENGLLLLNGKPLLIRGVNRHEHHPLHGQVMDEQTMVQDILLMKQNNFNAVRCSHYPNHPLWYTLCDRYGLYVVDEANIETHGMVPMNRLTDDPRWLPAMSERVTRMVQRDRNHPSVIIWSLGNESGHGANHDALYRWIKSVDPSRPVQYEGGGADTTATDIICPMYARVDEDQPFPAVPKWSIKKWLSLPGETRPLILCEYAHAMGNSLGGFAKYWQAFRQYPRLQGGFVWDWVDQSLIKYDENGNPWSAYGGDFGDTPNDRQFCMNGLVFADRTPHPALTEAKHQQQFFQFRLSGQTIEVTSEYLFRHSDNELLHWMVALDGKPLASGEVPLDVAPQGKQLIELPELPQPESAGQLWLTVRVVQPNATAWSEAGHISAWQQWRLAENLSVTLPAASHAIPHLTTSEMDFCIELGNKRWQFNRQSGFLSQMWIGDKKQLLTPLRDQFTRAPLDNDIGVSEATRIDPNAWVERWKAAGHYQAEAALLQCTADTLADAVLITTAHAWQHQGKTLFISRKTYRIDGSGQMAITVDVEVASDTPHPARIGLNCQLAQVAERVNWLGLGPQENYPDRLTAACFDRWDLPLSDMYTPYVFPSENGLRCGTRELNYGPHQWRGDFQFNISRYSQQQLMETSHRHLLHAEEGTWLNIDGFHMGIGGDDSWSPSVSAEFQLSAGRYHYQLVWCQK
Genome polyprotein, sequence (P29990 2492-3391 limits assumed): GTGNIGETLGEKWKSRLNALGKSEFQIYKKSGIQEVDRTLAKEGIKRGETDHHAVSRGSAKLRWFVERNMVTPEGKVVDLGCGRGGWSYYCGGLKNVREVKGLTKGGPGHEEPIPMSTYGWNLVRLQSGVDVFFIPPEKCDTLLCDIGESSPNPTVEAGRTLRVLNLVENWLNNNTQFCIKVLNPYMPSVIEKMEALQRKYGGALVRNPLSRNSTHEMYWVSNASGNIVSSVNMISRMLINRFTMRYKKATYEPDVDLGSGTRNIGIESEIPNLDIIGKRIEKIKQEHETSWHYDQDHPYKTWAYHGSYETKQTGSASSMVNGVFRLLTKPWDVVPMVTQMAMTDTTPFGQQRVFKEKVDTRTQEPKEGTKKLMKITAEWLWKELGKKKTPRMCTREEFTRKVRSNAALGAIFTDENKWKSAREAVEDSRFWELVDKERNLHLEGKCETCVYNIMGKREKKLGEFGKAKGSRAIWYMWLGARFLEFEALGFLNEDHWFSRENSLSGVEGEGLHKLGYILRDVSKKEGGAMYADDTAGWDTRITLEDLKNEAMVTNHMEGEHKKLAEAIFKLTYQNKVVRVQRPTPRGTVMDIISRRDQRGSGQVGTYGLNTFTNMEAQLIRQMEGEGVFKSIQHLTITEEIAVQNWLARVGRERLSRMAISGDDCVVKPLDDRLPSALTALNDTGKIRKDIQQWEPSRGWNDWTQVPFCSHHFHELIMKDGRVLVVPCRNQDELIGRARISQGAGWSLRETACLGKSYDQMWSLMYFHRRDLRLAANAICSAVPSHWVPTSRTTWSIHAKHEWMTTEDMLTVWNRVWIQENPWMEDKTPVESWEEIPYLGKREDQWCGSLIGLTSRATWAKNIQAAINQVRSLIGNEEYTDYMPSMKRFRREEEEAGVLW

For `NC(=O)c1c(NC(=O)c2ccccc2)sc2c1CCN(Cc1ccccc1)C2`, the EC50 in test [1] is > 99 µM (inactive); in test [2] it was > 300 µM (inconclusive); in test [3] it was 12.6 µM (active); in [4] it was > 99 µM (inactive); in test [5], > 300 µM (not active).

In the case of `O=[N+]([O-])c1c(NCCCO)cc(Sc2nc3ccccc3s2)c2nonc12`, the concentration at half-maximal activity (AC50) in [6] is 1.58 µM (active); in test [13], 26.2 µM (active); in test [18], 8.01 µM (active). In addition, the 50% inhibitory concentration (IC50) in test [7] is 2.05 µM (active); in [9], > 50 µM (not active); in test [11], 1.95 µM (active); in test [12] it was 2.37 µM (active); in test [16] it was 23 µM (active); in [19], > 80 µM (inactive). Also, the EC50 was 44.1 µM (inactive) in test [1]; 5.49 µM (active) in test [8]; > 99 µM (inactive) in [4]; 2.2 µM (active) in [14]; > 40 µM (inactive) in test [15]; 3.07 µM (active) in [17]. Besides, the CC50 in [10] is 26.2 µM (active).
